These results are taken from PubChem BioAssay (NCI).

In brackets after ≈: the same amount, converted by molar mass. Several values for one entry are separate records, joined by “and”; a condition that tells them apart may be missing. Identical values can stand only once.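 Exposure lasted 48 hours, with cells grown in 96-well plates and compounds tested at five concentrations. Here, GI50 denotes the concentration required for 50% inhibition of growth. Definition used: TGI = concentration required for complete inhibition of growth.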

Test systems include DU-145 prostate; HCC-2998 colon; HOP-62 NSCLC; HOP-92 NSCLC; HS 578T breast; LOX IMVI melanoma; MOLT-4 leukemia; NCI-H226 lung; UACC-257 melanoma.
Holding throughout (assay): NCI tumour cell line growth inhibition, 48 h

For the compound `Nc1ccccc1N/C(=C\C(=O)C(Cl)(Cl)Cl)c1ccccc1`, the TGI in the experiment on DU-145 prostate was over 100 µM; in the experiment with HCC-2998 colon it was 34.9 µM; in the experiment with HOP-62 NSCLC, 75.1 µM; in the experiment with HOP-92 NSCLC, 41.8 µM; with HS 578T breast it was over 100 µM; in the experiment with LOX IMVI melanoma, 35.6 µM. Further, the results for the TGI in the experiment with MOLT-4 leukemia, in the experiment on NCI-H226 lung and with UACC-257 melanoma were over 100 µM, over 100 µM and 79.1 µM, respectively.
For the compound `CC[C@@]1(O)C(=O)OCc2c1cc1n(c2=O)Cc2c-1nc1ccc(O)cc1c2CC[Si](C)(C)C`, the TGI is 0.00129 µM with DU-145 prostate; 0.0641 µM and 0.0601 µM in the experiment on HCC-2998 colon; 0.0106 µM in the experiment on HOP-62 NSCLC; 0.0308 µM in the experiment on HOP-92 NSCLC; 0.114 µM in the experiment with LOX IMVI melanoma; 0.00221 µM in the experiment on MOLT-4 leukemia. The TGI with UACC-257 melanoma is 0.136 µM and 0.0447 µM. Besides, the GI50 in the experiment with NCI-H226 lung was under 0.001 µM.
As to `O=C(CCN1CC2CCC(CC2)C1)c1cccs1`, the TGI with DU-145 prostate stood at 33.8 µM; in the experiment with HCC-2998 colon it was 29 µM; in the experiment with HOP-62 NSCLC it was 45.5 µM; in the experiment on HOP-92 NSCLC, 12.6 µM; in the experiment with HS 578T breast, 71.9 µM; in the experiment on LOX IMVI melanoma it was 27.7 µM. Also, the TGI in the experiment with MOLT-4 leukemia is 18.7 µM; in the experiment with NCI-H226 lung, over 100 µM; with UACC-257 melanoma, 30.4 µM.
Turning to `COc1ccc(N=C2C(=O)C3=C(OC(C)(C)CC3)c3ccccc32)cc1`, the TGI with DU-145 prostate was determined as 1.57 µM; in the experiment on HCC-2998 colon it was 3.96 µM; in the experiment with HOP-62 NSCLC, 1.89 µM; in the experiment with HOP-92 NSCLC, 22.2 µM; with HS 578T breast it was 48.8 µM; in the experiment on LOX IMVI melanoma, 10.3 µM. The TGI with MOLT-4 leukemia stood at 5.29 µM; in the experiment on NCI-H226 lung, 20.4 µM; with UACC-257 melanoma it was 2.09 µM.
As to `CN1C2CCC1C(C(O)c1ccccc1[N+](=O)[O-])C(=O)C2` (stereo not given), the TGI in the experiment with DU-145 prostate is 86.8 µM; with HCC-2998 colon it was over 100 µM; with HOP-62 NSCLC, over 100 µM; in the experiment with HS 578T breast, over 100 µM; in the experiment with LOX IMVI melanoma, over 100 µM; with MOLT-4 leukemia, over 100 µM. The TGI with NCI-H226 lung was 73.3 µM; with UACC-257 melanoma, over 100 µM.
As for `N#CC(c1ccccc1)N1CCCN(C(C#N)c2ccccc2)C1c1ccccc1O` (stereo not given), the TGI in the experiment on DU-145 prostate, with HCC-2998 colon, in the experiment with HOP-62 NSCLC, in the experiment on HOP-92 NSCLC, in the experiment with HS 578T breast and with LOX IMVI melanoma was over 100 µM throughout. In addition, the TGI in the experiment on MOLT-4 leukemia, with NCI-H226 lung and in the experiment with UACC-257 melanoma was over 100 µM in each case.
As to `O=S1(=O)OC(c2ccc(O)cc2)(c2ccc(O)cc2)c2ccccc21`, the TGI in the experiment with DU-145 prostate, in the experiment on HCC-2998 colon, in the experiment with HOP-62 NSCLC, with HOP-92 NSCLC, in the experiment with HS 578T breast and in the experiment with LOX IMVI melanoma was over 100 µM throughout. Moreover, the TGI in the experiment with MOLT-4 leukemia, with NCI-H226 lung and in the experiment with UACC-257 melanoma was over 100 µM throughout.
Consider `Nc1nc(N)c2c(n1)NC(c1ccccc1)CC(/C=C/c1ccc(Cl)cc1)=N2` (stereo not given), for which the TGI in the experiment on DU-145 prostate amounted to 24.4 µM; in the experiment with HOP-62 NSCLC it was 34 µM; in the experiment with HOP-92 NSCLC it was 18.2 µM; in the experiment on HS 578T breast it was 9.94 µM; in the experiment with LOX IMVI melanoma it was 13.4 µM; in the experiment with MOLT-4 leukemia, 12.6 µM. For the same compound, the TGI in the experiment on NCI-H226 lung is 27.7 µM; with UACC-257 melanoma, 7.78 µM.
Turning to `O=[n+]1c2c(n([O-])c3ccccc31)-c1cccc3cccc-2c13`, the TGI with DU-145 prostate, in the experiment with HCC-2998 colon, in the experiment with HOP-92 NSCLC, with HS 578T breast, in the experiment with LOX IMVI melanoma and with MOLT-4 leukemia was over 100 µM throughout. Moreover, the TGI with NCI-H226 lung and with UACC-257 melanoma was over 100 µM each time.
As to `Nc1ccc2c(c1)C(=O)N(O)C2=O`, the TGI with HCC-2998 colon, in the experiment on HOP-62 NSCLC, in the experiment with LOX IMVI melanoma, in the experiment on MOLT-4 leukemia, in the experiment on NCI-H226 lung and in the experiment with UACC-257 melanoma was over 100 µM each time.
For `COc1ccc(N=c2ssc(C(=S)Nc3ccc(OC)cc3)c2S)cc1`, the TGI in the experiment with DU-145 prostate is over 100 µM; in the experiment on HCC-2998 colon, 84.6 µM; with HOP-62 NSCLC, over 100 µM; with HOP-92 NSCLC it was over 100 µM; in the experiment on HS 578T breast, over 100 µM; in the experiment with LOX IMVI melanoma, over 100 µM. In addition, the TGI in the experiment with MOLT-4 leukemia, in the experiment with NCI-H226 lung and in the experiment on UACC-257 melanoma was over 100 µM each time.
For the compound `C[C@]12CCC(=O)C=C1CC[C@@H]1[C@@H]2[C@@H](O)C[C@@]2(C)[C@H]1CC[C@]2(O)C(=O)CO`, the TGI with DU-145 prostate, with HCC-2998 colon, in the experiment on HOP-62 NSCLC, in the experiment with HOP-92 NSCLC, with HS 578T breast and in the experiment with LOX IMVI melanoma was over 100 µM in each case. Moreover, the TGI in the experiment with MOLT-4 leukemia, in the experiment on NCI-H226 lung and with UACC-257 melanoma was over 100 µM each time.
As to `CN(C)CCn1c(=O)c2ccc3c4c(nn3CCN(C)C)c3cc(N)ccc3n(c1=O)c24`, the TGI with DU-145 prostate is 0.438 µM; in the experiment with HCC-2998 colon, 1.04 µM; with HOP-62 NSCLC, 0.201 µM; with HS 578T breast it was 1.03 µM; in the experiment with LOX IMVI melanoma it was 0.127 µM; in the experiment on MOLT-4 leukemia it was over 100 µM. Besides, the values for the TGI with NCI-H226 lung and with UACC-257 melanoma were 0.759 µM and 0.433 µM, respectively.
With `CC1(C)CC(=O)C2=C(C1)NC(SSC1=C(C#N)C(c3ccc(F)cc3)C3=C(CC(C)(C)CC3=O)N1)=C(C#N)C2c1ccc(F)cc1` (stereo not given), the GI50 was 15 µg/mL (≈ 22.9 µM) in the experiment on DU-145 prostate; 108 µg/mL (≈ 164 µM) in the experiment on HOP-62 NSCLC; 76.9 µg/mL (≈ 117 µM) in the experiment on HS 578T breast; 30.5 µg/mL (≈ 46.5 µM) with LOX IMVI melanoma; 39.1 µg/mL (≈ 59.8 µM) in the experiment on MOLT-4 leukemia; 30.2 µg/mL (≈ 46.2 µM) in the experiment with UACC-257 melanoma. The TGI in the experiment with DU-145 prostate is 15 µg/mL; in the experiment on HOP-62 NSCLC, over 150 µg/mL; with HS 578T breast it was over 150 µg/mL; with LOX IMVI melanoma, 63.3 µg/mL; with MOLT-4 leukemia it was 118 µg/mL; in the experiment on UACC-257 melanoma, 51.6 µg/mL.
Regarding `COc1c2c(cc3c1C(O)N1CC[C@]34[C@H]3O[C@H]3[C@H](OC)C[C@@H]14)OCO2` (stereo not given in full), the TGI with DU-145 prostate, in the experiment with HCC-2998 colon, in the experiment on HOP-62 NSCLC, in the experiment on HOP-92 NSCLC, in the experiment on HS 578T breast and in the experiment with LOX IMVI melanoma was over 100 µM throughout. Also, the TGI in the experiment on MOLT-4 leukemia, in the experiment with NCI-H226 lung and in the experiment on UACC-257 melanoma was over 100 µM throughout.
